From patent US20230295574A1, “GINGIVAL TISSUES AND METHODS OF PREPARATION THEREOF” (National University of Singapore, priority 2020, published 2023)

Tests used:
[1] = tested on: Gingiva-FT gingival tissue equivalents; assay: Mucosal corrosion on Gingiva-FT (OECD TG431); assay type: cell-based, human; conditions: for tissue disruption: Gingiva-FT
Protocol: Some excipients used to incorporate the actives and formulate oral/dental care products and pharmaceuticals, have the potential to cause mucosal corrosion similar to caustic substances like acids and bases. […] Based on the OECD TG431 guidelines, 50% and 15% cellular viability was set as thresholds for 3 min and 60 min exposures respectively.

[2] = tested on: Gingiva-FT gingival tissue equivalents; assay: Mucosal irritation and barrier integrity of mouthwashes on intact Gingiva-FT
Protocol: To evaluate the use of 3D cultured gingival tissue equivalents of the present invention for mucosal irritation, we investigated the impact of 2 commercially available mouthwashes. To mimic the actual use case scenario, gingival tissue equivalents (surface area 0.78 cm^2) were exposed to 130 μl alcohol-free (Listerine® Gum care Zero) or alcohol-based (Listerine® Cool Mint) mouthwashes for 30 secs, washed, and cultured. After 10 hours, the tissues were re-exposed to the respective mouthwash, washed and cultured for 24 hours. Phosphate buffered saline (PBS) and 1% sodium lauryl sulphate was used as negative and positive controls respectively. Based on the OECD TG439 guidelines, 50% cellular viability was set as threshold for classification of mucosal irritants.

[3] = tested on: lamina propria equivalents; assay: Mucosal irritation of mouthwashes on lamina propria equivalents (oral ulcer model)
Protocol: Oral ulcers are one of the most common disturbances in the oral cavity. Since, the oral ulcers is devoid of the overlying epithelium, the barrier function provided by the epithelium is lost. […] To evaluate the use of 3D cultured lamina propria equivalents as a model of oral ulcers, we investigated the impact of 2 commercially available mouthwashes for mucosal irritation. To mimic the actual use case scenario, gingival tissue equivalents (surface area 0.78 cm^2) were exposed to 130 μl alcohol-free (Listerine® Gum care Zero) or alcohol-based (Listerine® Cool Mint) mouthwashes for 30 secs, washed, and cultured. After 10 hours, the tissues were re-exposed to the respective mouthwash, washed and cultured for 24 hours. Phosphate buffered saline (PBS) and 1% sodium lauryl sulphate was used as negative and positive controls respectively. Based on the OECD TG439 guidelines, 50% cellular viability was set as threshold for classification of mucosal irritation.

[4] = exposure 30 secs twice, 24 hours culture
[5] = lamina propria equivalents, exposure 30 secs twice, 24 hours culture

| SMILES | tissue disruption ([1]; 3 min exposure) | tissue disruption ([1]; 60 min exposure) | mucosal corrosion classification ([1]; OECD TG431) | TUNEL staining (apoptosis/cell death) [2, 4] | cytotoxicity (LDH assay) [2, 4] | tissue / epithelial disruption [2, 4] | cellular viability ([2]; exposure 30 secs, re-exposed after 10 hours, cultured 24 hours, 50% threshold (OECD TG439)) | cellular viability ([3]; lamina propria equivalents (ulcer model), exposure 30 secs, re-exposed after 10 hours, cultured 24 hours, 50% threshold (OECD TG439)) | TUNEL staining (apoptosis/cell death) [3, 5] | cytotoxicity (LDH assay) [3, 5] | tissue disruption [3, 5] |
| --- | --- | --- | --- | --- | --- | --- | --- | --- | --- | --- | --- |
| O=P(O)(O)O [37% phosphoric acid, phosphoric acid] | tissue disruption | almost complete lysis of the tissues | corrosive (category 1A) | – | – | – | – | – | – | – | – |
| CCCCCCCCCCCCOS(=O)(=O)[O-].[Na+] [1% sodium lauryl sulphate, sodium lauryl sulphate] | – | – | – | TUNEL positivity | markedly increased cytotoxicity | significant tissue disruption | < 50% | < 50% | TUNEL positivity | markedly increased cytotoxicity | significant tissue disruption |
